Source: paper PMC10053552, “Multiple Bioactivities of Peptides from Hydrolyzed Misgurnus anguillicaudatus” (Molecules, 2023)

Columns and labels:
DPPH scavenging activity = assay type: biochemical; settings: 0.5 mg/mL, glutathione at the same concentration
[1] = system: pancreatic cholesterol esterase (CE); assay: Pancreatic CE inhibitory activity; assay type: biochemical; settings: 1 mg/mL (Figure 6a); pNPB substrate, pH 7.2, 37 °C, 30 min, 405 nm
[2] = Hydroxyl radical scavenging activity; assay type: biochemical; settings: 0.5 mg/mL; amount higher than that of glutathione at the same concentration
[3] = biological target: angiotensin-converting enzyme (ACE) (UniProt P12821)
[4] = biological target: pancreatic cholesterol esterase (CE) (UniProt P19835)
Sequence of UniProt P19835 (P19835 21-753): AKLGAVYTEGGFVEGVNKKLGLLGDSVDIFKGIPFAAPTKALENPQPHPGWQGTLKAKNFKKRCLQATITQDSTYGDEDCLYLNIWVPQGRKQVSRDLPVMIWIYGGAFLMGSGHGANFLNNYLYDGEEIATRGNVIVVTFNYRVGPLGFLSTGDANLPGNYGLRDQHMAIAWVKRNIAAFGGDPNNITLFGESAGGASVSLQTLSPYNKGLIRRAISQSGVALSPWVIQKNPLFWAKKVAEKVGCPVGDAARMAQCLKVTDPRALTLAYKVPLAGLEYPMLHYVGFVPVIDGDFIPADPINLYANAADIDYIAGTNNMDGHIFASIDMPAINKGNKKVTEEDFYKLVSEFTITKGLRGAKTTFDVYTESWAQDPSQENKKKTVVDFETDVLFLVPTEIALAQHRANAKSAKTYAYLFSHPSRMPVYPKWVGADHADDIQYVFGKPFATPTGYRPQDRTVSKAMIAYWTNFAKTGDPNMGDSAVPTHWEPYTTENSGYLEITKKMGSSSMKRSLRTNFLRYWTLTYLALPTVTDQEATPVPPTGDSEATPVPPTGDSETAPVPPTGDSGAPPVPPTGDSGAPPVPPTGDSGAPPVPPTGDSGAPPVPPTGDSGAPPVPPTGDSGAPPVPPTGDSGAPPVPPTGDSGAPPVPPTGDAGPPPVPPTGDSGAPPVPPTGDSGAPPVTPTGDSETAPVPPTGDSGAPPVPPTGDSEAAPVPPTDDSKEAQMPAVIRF

Sequence of UniProt P12821 (P12821 30-1256): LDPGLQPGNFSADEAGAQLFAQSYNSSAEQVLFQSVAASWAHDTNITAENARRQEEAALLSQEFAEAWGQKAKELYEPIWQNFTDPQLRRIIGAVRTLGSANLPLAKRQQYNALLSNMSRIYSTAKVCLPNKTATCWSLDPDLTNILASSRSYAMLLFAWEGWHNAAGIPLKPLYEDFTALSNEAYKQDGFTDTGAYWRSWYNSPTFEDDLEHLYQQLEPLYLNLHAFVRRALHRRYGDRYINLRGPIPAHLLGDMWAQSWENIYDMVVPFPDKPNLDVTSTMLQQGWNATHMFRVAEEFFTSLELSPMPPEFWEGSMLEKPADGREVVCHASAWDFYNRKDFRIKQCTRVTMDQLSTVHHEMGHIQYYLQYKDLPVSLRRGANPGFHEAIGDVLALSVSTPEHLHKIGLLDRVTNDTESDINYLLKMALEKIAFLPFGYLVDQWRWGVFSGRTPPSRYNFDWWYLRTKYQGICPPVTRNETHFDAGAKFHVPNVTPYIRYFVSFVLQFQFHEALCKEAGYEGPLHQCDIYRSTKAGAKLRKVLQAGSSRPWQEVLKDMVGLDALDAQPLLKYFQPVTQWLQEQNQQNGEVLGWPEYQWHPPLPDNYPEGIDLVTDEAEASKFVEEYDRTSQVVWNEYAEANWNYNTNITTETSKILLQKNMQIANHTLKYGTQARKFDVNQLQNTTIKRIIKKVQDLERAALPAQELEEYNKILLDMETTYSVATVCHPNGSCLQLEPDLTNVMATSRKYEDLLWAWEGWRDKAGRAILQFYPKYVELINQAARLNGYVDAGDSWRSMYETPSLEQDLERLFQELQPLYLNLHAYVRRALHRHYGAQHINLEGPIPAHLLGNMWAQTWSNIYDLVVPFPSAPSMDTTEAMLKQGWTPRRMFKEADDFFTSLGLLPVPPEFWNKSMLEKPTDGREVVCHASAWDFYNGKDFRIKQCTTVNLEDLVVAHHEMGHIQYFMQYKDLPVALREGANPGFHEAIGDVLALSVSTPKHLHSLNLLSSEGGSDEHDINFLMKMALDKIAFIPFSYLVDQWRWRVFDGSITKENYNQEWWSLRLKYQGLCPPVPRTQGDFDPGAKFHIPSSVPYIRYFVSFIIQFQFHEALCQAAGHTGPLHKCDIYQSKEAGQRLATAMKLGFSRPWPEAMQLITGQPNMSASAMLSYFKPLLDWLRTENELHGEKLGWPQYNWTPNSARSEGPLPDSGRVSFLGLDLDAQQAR

DAGAGIAL [Peptide D-5, peptide DAGAGIAL identified in loach hydrolysate component F2, solid-phase synthesized]
DPPH scavenging activity as percentage of that of glutathione (DPPH scavenging activity): more than 90%

NDHFVKL [Peptide D-3, peptide NDHFVKL identified in loach hydrolysate component F2, solid-phase synthesized]
Pancreatic CE inhibition [1]: exhibited inhibitory effects on pancreatic CE
DPPH scavenging activity as percentage of that of glutathione (DPPH scavenging activity): more than 90%

SERDPSNIKWGDAGAQ [Peptide D-1, peptide … identified in loach hydrolysate component F2, solid-phase synthesized]
Hydroxyl radical scavenging activity: excess over glutathione [2]: 15.87%
DPPH scavenging activity as percentage of that of glutathione (DPPH scavenging activity): more than 90%

AFRVPTP [peptide D-4 (AFRVPTP)]
ACE inhibitory activity, percent inhibition (FAPGG hydrolysis; peptide concentration not given) [3]: 92.1%
IC50 of ACE inhibition (enzyme activity, FAPGG hydrolysis, absorbance at 340 nm, 37 °C, pH 8.3) [3]: 0.12 mM

TVDGPSGKLWR [peptide D-2 (…)]
IC50 of pancreatic CE inhibition (enzyme activity, pNPB hydrolysis, absorbance at 405 nm, 37 °C, pH 7.2) [4]: 2.62 mM
